Measurements as given in patent US20260356819A1, “OXOISOINDOLINYL-SUBSTITUTED […] DERIVATIVE AND USE THEREOF” (GLUETACS THERAPEUTICS (SHANGHAI) CO., LTD., priority 2023, published 2026).

What was measured:
[1] = test system: MM.1S cells; test: Inhibition of proliferation of multiple myeloma cells MM.1S (cell viability assay, 96 h); format: cell-based, human; details: read-out: inhibitory activity (IC50) against tumor cells proliferation, MM.1S
Method: The tumor cells used herein were cultured in a cell culture medium listed in table 2 at 37 °C in an incubator with 5% CO2. Prior to experimentation, all cell lines used were correctly identified by STR profiling, and tested negative for Mycoplasma contamination using a Mycoplasma detection kit through routine screenings.
The IC50 values of the compounds of the present disclosure (including the compounds in Table 1, and Examples 1-498) were determined using the CellTiter-Meiluncell Luminescent Cell Viability Assay Kit from Dalian Meilun Biotech Co., Ltd. The detailed procedure is as follows: Tumor cells were seeded in 96-well cell culture plates at the densities specified in Table 3. On the following day, the test compounds of the present disclosure were subjected to serial dilution. […] Subsequently, 0.5 μL of the test compound dilution was transferred into the 96-well plate containing the cells, with each well containing 100 μL of cell culture medium. […] Into the 96-well plate, the diluted test compounds and corresponding detection reagents were added, resulting in final test compound concentrations of 500 nM and 10 nM, respectively. The experimental procedure is described below using the diluted 2 μM test compound as an example.
0.5 μL of the aforementioned diluted compound of the present disclosure (including the compounds in Table 1, and Examples 1-498) was added to the seeded cells in 100 μL of medium, yielding a final test compound concentration of 10 nM. After the cells were treated with the compounds of the present disclosure for a specified period, the cell viability assay reagent was added to the culture medium according to the kit's instructions to determine cell viability. […] All controls were treated using the same procedure as the compounds of the present disclosure. The growth inhibition curves for the compounds of the present disclosure were plotted using Prism GraphPad software, and the IC50 values were calculated therefrom.

[2] = biological target: T1, WEE1 (Homo sapiens, UniProt P30291+Q96SW2); test: Western blot degradation of WEE1 in hPBMCs (24 h); format: cell-based; details: compounds at 50 nM and 500 nM
T1 construct: The supernatant was aspirated as the extracted total cell protein; endogenous in cells; host or cells: human peripheral blood mononuclear cells (hPBMCs)
Procedure, shortened: (§1)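 Compounds were tested at 50 nM and 500 nM on hPBMCs (1×10^6 cells/mL) for 24 h, alongside DMSO. Proteins were detected by Western blot after denaturation at 95 °C; remaining protein computed from normalised band grayscale.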

[3] = biological target: T2, IKZF1 (Homo sapiens, UniProt Q13422+Q96SW2); test: Western blot degradation of IKZF1 in hPBMCs (24 h); format: cell-based; details: compounds at 50 nM and 500 nM
T2 construct: The supernatant was aspirated as the extracted total cell protein; endogenous in cells; host or cells: human peripheral blood mononuclear cells (hPBMCs)
Procedure, shortened: as §1

[4] = biological target: T3, IKZF2 (Homo sapiens, UniProt Q96SW2+Q9UKS7); test: Western blot degradation of IKZF2 in hPBMCs (24 h); format: cell-based; details: compounds at 50 nM and 500 nM
T3 construct: The supernatant was aspirated as the extracted total cell protein; endogenous in cells; host or cells: human peripheral blood mononuclear cells (hPBMCs)
Procedure, shortened: as §1

[5] = biological target: T4, IKZF3 (Homo sapiens, UniProt Q96SW2+Q9UKT9); test: Western blot degradation of IKZF3 in hPBMCs (24 h); format: cell-based; details: compounds at 50 nM and 500 nM
T4 construct: The supernatant was aspirated as the extracted total cell protein; endogenous in cells; host or cells: human peripheral blood mononuclear cells (hPBMCs)
Procedure, shortened: as §1

[6] = biological target: T5, CK1α (Homo sapiens, UniProt P48729+Q96SW2); test: Western blot degradation of CK1α in hPBMCs (24 h); format: cell-based; details: compounds at 50 nM and 500 nM
T5 construct: The supernatant was aspirated as the extracted total cell protein; endogenous in cells; host or cells: human peripheral blood mononuclear cells (hPBMCs)
Procedure, shortened: as §1

[7] = biological target: T6, GSPT1 (Homo sapiens, UniProt P15170+Q96SW2); test: Western blot degradation of GSPT1 in hPBMCs (24 h); format: cell-based; details: compounds at 50 nM and 500 nM
T6 construct: The supernatant was aspirated as the extracted total cell protein; endogenous in cells; host or cells: human peripheral blood mononuclear cells (hPBMCs)
Procedure, shortened: as §1

T5 sequence (P48729 whole entry): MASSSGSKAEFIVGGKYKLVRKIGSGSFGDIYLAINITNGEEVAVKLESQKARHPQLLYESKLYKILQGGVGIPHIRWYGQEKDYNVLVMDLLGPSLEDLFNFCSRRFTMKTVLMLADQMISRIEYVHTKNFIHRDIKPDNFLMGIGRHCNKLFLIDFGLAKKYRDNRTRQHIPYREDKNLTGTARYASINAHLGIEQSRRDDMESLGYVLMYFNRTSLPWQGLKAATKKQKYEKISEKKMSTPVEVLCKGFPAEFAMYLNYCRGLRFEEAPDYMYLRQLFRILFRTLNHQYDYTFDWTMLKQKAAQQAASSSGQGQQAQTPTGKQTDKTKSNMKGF
T5 sequence (Q96SW2 whole entry): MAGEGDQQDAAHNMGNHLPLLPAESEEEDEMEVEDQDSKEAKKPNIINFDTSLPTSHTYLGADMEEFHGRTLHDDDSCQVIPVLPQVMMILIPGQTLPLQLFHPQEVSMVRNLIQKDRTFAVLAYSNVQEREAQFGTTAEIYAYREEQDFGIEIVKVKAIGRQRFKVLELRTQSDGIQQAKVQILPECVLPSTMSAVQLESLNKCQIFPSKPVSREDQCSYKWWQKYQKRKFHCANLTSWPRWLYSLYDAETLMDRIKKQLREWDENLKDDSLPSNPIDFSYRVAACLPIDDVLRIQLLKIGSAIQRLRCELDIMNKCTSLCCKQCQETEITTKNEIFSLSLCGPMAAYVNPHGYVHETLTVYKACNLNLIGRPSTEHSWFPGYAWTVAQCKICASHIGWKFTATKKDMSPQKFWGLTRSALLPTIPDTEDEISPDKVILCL
T5 sequence (Q16531 whole entry partner): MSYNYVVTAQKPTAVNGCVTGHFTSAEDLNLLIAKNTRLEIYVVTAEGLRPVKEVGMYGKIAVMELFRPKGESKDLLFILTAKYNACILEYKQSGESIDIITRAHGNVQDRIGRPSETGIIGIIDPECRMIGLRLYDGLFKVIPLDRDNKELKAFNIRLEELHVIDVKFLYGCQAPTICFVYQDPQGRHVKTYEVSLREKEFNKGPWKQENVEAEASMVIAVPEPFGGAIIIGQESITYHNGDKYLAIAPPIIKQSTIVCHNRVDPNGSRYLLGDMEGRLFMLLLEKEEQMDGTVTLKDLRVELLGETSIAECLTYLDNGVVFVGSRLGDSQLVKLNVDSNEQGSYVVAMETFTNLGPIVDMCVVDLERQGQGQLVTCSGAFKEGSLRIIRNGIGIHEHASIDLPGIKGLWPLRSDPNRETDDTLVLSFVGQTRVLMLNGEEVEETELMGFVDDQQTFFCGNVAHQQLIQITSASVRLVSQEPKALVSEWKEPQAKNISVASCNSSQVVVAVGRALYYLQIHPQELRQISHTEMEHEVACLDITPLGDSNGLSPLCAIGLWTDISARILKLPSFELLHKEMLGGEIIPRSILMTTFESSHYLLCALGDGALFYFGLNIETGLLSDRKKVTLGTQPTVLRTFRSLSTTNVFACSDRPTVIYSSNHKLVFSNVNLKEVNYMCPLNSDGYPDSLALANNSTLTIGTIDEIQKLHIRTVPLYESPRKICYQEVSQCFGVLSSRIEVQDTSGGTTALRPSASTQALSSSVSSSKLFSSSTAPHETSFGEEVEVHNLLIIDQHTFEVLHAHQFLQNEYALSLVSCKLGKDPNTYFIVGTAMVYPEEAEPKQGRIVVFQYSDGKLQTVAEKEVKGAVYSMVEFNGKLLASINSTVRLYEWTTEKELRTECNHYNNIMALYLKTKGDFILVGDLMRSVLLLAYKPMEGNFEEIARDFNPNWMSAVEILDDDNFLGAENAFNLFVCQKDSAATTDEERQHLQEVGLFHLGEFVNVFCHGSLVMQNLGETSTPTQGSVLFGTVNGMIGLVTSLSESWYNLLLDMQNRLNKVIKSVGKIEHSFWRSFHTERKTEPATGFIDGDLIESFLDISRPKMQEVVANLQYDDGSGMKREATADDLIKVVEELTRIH
T1 sequence (P30291 whole entry): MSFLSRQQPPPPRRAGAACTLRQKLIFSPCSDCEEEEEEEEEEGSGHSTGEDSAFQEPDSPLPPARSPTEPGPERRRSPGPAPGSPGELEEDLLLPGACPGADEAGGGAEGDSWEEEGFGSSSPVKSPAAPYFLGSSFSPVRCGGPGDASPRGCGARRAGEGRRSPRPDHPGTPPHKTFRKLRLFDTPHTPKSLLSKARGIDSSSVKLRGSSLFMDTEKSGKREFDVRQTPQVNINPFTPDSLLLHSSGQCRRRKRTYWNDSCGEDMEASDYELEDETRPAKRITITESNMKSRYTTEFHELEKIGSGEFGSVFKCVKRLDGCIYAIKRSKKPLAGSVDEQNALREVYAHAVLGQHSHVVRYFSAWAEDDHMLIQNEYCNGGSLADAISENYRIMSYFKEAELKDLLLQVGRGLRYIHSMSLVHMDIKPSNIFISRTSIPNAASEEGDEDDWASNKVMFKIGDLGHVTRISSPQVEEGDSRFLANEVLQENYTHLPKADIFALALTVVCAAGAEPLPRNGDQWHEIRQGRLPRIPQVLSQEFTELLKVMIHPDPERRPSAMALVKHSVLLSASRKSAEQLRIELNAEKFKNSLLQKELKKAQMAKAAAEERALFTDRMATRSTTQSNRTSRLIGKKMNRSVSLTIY
T1 sequence (Q96SW2 whole entry): as the sequence (Q96SW2 whole entry) above
T1 sequence (Q16531 whole entry partner): as the sequence (Q16531 whole entry partner) above
T4 sequence (Q9UKT9 whole entry): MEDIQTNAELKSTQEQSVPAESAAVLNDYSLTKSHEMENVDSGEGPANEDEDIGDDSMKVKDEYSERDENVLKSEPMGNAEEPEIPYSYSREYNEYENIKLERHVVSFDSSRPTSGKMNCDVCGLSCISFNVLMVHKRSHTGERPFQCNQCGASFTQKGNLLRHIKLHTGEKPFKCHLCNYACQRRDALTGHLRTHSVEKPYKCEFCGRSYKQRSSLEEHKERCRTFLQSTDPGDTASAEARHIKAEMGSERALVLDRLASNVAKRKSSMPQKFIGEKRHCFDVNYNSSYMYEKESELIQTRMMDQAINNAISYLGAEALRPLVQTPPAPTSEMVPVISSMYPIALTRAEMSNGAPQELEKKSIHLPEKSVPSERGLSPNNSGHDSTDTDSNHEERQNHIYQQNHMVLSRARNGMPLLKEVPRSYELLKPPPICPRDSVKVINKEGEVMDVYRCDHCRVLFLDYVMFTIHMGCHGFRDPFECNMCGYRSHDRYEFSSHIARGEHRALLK
T4 sequence (Q96SW2 whole entry): as the sequence (Q96SW2 whole entry) above
T4 sequence (Q16531 whole entry partner): as the sequence (Q16531 whole entry partner) above
T2 sequence (Q13422 whole entry): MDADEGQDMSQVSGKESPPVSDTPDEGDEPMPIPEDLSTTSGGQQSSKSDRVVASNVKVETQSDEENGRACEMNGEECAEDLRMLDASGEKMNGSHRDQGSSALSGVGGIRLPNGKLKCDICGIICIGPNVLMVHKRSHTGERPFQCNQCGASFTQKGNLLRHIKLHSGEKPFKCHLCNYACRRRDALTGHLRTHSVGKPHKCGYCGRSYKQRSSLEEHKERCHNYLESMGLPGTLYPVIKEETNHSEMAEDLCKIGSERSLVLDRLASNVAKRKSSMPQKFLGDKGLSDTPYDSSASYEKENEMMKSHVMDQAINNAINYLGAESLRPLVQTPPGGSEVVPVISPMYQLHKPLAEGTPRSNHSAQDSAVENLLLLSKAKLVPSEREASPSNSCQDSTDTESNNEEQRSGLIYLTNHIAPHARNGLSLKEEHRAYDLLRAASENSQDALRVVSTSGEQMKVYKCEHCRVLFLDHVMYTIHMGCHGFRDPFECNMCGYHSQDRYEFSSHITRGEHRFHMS
T2 sequence (Q96SW2 whole entry): as the sequence (Q96SW2 whole entry) above
T2 sequence (Q16531 whole entry partner): as the sequence (Q16531 whole entry partner) above
T3 sequence (Q9UKS7 whole entry): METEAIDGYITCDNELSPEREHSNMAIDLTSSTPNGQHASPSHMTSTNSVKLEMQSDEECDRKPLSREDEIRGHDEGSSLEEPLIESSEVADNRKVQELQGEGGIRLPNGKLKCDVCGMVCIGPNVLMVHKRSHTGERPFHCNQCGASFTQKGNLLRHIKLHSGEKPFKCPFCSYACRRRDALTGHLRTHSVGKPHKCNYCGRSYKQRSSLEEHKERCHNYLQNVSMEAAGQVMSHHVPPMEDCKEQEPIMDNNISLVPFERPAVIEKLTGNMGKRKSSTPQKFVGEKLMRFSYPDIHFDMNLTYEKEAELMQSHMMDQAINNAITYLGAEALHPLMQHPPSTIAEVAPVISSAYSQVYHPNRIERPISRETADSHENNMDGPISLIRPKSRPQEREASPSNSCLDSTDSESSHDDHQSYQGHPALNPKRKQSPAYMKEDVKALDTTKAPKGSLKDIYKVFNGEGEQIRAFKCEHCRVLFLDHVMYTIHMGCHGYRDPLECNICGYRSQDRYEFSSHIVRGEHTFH
T3 sequence (Q96SW2 whole entry): as the sequence (Q96SW2 whole entry) above
T3 sequence (Q16531 whole entry partner): as the sequence (Q16531 whole entry partner) above

| Compound | IC50 [1] [nM] | WEE1 substrate protein remaining % [2] | IKZF1 substrate protein remaining % [3] | IKZF2 substrate protein remaining % [4] | IKZF3 substrate protein remaining % [5] | CK1α substrate protein remaining % [6] | GSPT1 substrate protein remaining % [7] |
| --- | --- | --- | --- | --- | --- | --- | --- |
| O=C1CCN(N2Cc3cc(CN4CCC(c5c[nH]c6cc(F)ccc56)CC4)ccc3C2=O)C(=O)N1 [GT-05164, 1-(5-((4-(6-fluoro-1H-indol-3-yl)piperidin-1-yl)methyl)-1-oxoisoindolin-2-yl)dihydropyrimidine-2,4(1H,3H)-dione] | 100 to 300 | B (80%< substrate protein remaining % ≤100%) | A (0% ≤ substrate protein remaining % ≤80%) | A (0% ≤ substrate protein remaining % ≤80%) | B (80%< substrate protein remaining % ≤100%) | B (80%< substrate protein remaining % ≤100%) | A (0% ≤ substrate protein remaining % ≤80%) |
| O=C1CCN(N2Cc3cc(CN4CCC(N5CCc6cc(F)ccc65)CC4)ccc3C2=O)C(=O)N1 [GT-05165, 1-(5-((4-(5-fluoroindolin-1-yl)piperidin-1-yl)methyl)-1-oxoisoindolin-2-yl)dihydropyrimidine-2,4(1H,3H)-dione] | 500 to 1000 | B (80%< substrate protein remaining % ≤100%) | B (80%< substrate protein remaining % ≤100%) | A (0% ≤ substrate protein remaining % ≤80%) | B (80%< substrate protein remaining % ≤100%) | B (80%< substrate protein remaining % ≤100%) | A (0% ≤ substrate protein remaining % ≤80%) |
| O=C1CCN(N2Cc3cc(CN4CC=C(c5ccnc6cc(F)ccc56)CC4)ccc3C2=O)C(=O)N1 [GT-05166, 1-(5-((4-(7-fluoroquinolin-4-yl)-3,6-dihydropyridin-1(2H)-yl)methyl)-1-oxoisoindolin-2-yl)dihydropyrimidine-2,4(1H,3H)-dione] | 100 to 300 | A (0% ≤ substrate protein remaining % ≤80%) | A (0% ≤ substrate protein remaining % ≤80%) | A (0% ≤ substrate protein remaining % ≤80%) | A (0% ≤ substrate protein remaining % ≤80%) | B (80%< substrate protein remaining % ≤100%) | A (0% ≤ substrate protein remaining % ≤80%) |
| Cn1cc(C2=CCN(Cc3ccc4c(c3)CN(N3CCC(=O)NC3=O)C4=O)CC2)c2ccc(F)cc21 [GT-05167, 1-(5-((4-(6-fluoro-1-methyl-1H-indol-3-yl)-3,6-dihydropyridin-1 (2H)-yl)methyl)-1-oxoisoindolin-2-yl)dihydropyrimidine-2,4(1H,3H)-dione] | 10 to 50 | A (0% ≤ substrate protein remaining % ≤80%) | A (0% ≤ substrate protein remaining % ≤80%) | A (0% ≤ substrate protein remaining % ≤80%) | A (0% ≤ substrate protein remaining % ≤80%) | B (80%< substrate protein remaining % ≤100%) | A (0% ≤ substrate protein remaining % ≤80%) |
| O=C1CCN(N2Cc3cc(CN4CC(=C5CCOc6cc(F)ccc65)C4)ccc3C2=O)C(=O)N1 [GT-05168, 1-(5-((3-(7-fluorochroman-4-ylidene)azetidin-1-yl)methyl)-1-oxoisoindolin-2-yl)dihydropyrimidine-2,4(1H,3H)-dione] | 100 to 300 | B (80%< substrate protein remaining % ≤100%) | B (80%< substrate protein remaining % ≤100%) | B (80%< substrate protein remaining % ≤100%) | A (0% ≤ substrate protein remaining % ≤80%) | B (80%< substrate protein remaining % ≤100%) | A (0% ≤ substrate protein remaining % ≤80%) |
| O=C1CCN(N2Cc3cc(CN4CC(N5CCc6cc(F)ccc65)C4)ccc3C2=O)C(=O)N1 [GT-05169, 1-(5-((3-(5-fluoroindolin-1-yl)azetidin-1-yl)methyl)-1-oxoisoindolin-2-yl)dihydropyrimidine-2,4(1H,3H)-dione] | 100 to 300 | B (80%< substrate protein remaining % ≤100%) | B (80%< substrate protein remaining % ≤100%) | A (0% ≤ substrate protein remaining % ≤80%) | A (0% ≤ substrate protein remaining % ≤80%) | B (80%< substrate protein remaining % ≤100%) | A (0% ≤ substrate protein remaining % ≤80%) |
| O=C1CCN(N2Cc3cc(CN4CC=C(c5nccc(Cl)c5Cl)CC4)ccc3C2=O)C(=O)N1 [GT-06392, 1-(5-((3,4-dichloro-3′,6′-dihydro-[2,4′-bipyridin]-1′ (2′H)-yl)methyl)-1-oxoisoindolin-2-yl)dihydropyrimidine-2,4(1H,3H)-dione] | 300 to 500 | A (0% ≤ substrate protein remaining % ≤80%) | B (80%< substrate protein remaining % ≤100%) | A (0% ≤ substrate protein remaining % ≤80%) | A (0% ≤ substrate protein remaining % ≤80%) | A (0% ≤ substrate protein remaining % ≤80%) | A (0% ≤ substrate protein remaining % ≤80%) |
| O=C1CCN(N2Cc3cc(CN4CC=C(c5cncc(Cl)c5Cl)CC4)ccc3C2=O)C(=O)N1 [GT-06393, 1-(5-((4,5-dichloro-3′,6′-dihydro-[3,4′-bipyridin]-1′ (2′H)-yl)methyl)-1-oxoisoindolin-2-yl)dihydropyrimidine-2,4(1H,3H)-dione] | 500 to 1000 | A (0% ≤ substrate protein remaining % ≤80%) | B (80%< substrate protein remaining % ≤100%) | A (0% ≤ substrate protein remaining % ≤80%) | A (0% ≤ substrate protein remaining % ≤80%) | A (0% ≤ substrate protein remaining % ≤80%) | A (0% ≤ substrate protein remaining % ≤80%) |
| CC1(C)CCC(CN2CC3CC(C2)N3Cc2ccc3c(c2)CN(N2CCC(=O)NC2=O)C3=O)=C(c2ccc(Cl)cc2)C1 [GT-06456, 1-(5-((3-((4′-chloro-5,5-dimethyl-3,4,5,6-tetrahydro-[1,1′-biphenyl]-2-yl)methyl)-3,6-diazabicyclo[3.1.1]heptan-6-yl)methyl)-1-oxoisoindolin-2-yl)dihydropyrimidine-2,4(1H,3H)-dione] | 100 to 300 | A (0% ≤ substrate protein remaining % ≤80%) | A (0% ≤ substrate protein remaining % ≤80%) | A (0% ≤ substrate protein remaining % ≤80%) | A (0% ≤ substrate protein remaining % ≤80%) | A (0% ≤ substrate protein remaining % ≤80%) | A (0% ≤ substrate protein remaining % ≤80%) |
